Where two headings read alike, the source gives them in different places.
Experiments:
PC-3 cells = test: Cell Proliferation Assay (Cell Titer Glo), PC-3 cell line; type: cell-based; settings: PC3, read-out: CPEC50 PC3
How it was run: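 PC-3 cells, 1000 cells/well, left to adhere 3-5 h, then exposed for 3 days at 37° C to compounds as 1:3 serial dilutions from 500× DMSO stocks diluted in growth medium. Medium then replaced with fresh medium and viability read by Cell Titer Glo luminescence.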

PDK1 kinase = target: T1, PDK1 kinase (Homo sapiens, UniProt O15530); test: PDK1 Kinase Alpha Screen Assay; type: biochemical; settings: PDK1 Kinase Alpha Screen Assay; read-out: PDK1 IC50
T1 sequence (O15530 1-556): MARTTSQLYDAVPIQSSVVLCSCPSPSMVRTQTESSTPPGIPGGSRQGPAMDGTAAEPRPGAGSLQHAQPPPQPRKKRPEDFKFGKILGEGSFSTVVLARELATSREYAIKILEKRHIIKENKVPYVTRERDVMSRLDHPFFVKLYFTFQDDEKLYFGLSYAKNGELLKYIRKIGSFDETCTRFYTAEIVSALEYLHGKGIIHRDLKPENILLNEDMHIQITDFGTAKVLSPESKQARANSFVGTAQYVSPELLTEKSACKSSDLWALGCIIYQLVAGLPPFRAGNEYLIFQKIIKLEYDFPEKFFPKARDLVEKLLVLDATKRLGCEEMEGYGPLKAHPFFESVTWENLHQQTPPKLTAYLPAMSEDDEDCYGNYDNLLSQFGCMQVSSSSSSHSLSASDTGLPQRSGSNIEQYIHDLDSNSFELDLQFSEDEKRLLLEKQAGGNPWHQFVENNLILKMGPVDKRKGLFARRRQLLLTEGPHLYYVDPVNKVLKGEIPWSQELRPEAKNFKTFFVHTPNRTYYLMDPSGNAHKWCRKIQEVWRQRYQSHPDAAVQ
How it was run: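 Test compounds were incubated with PDK1 kinase, 10 uM ATP and 50 nM biotinylated peptide substrate for 3-18 hours at pH 7.5 with 2.5% DMSO. Peptide phosphorylation was then detected by AlphaScreen proximity luminescence using a phospho-(Ser/Thr) PKA substrate antibody.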

[1] = Homo sapiens, PC-3, Cell Proliferation Assay

Row | EC50 (PC-3 cells; [1]) [µM] | IC50 (PDK1 kinase) [µM] | EC50 (PC-3 cells; Cell Proliferation Assay) [µM] | SMILES
1 | 5 to 10 | < 5 |  | Cc1ccc(OC2CCNCC2)c2nc(Nc3ccc(C(=O)N4CCOCC4)cc3)ncc12 [Compound 356, (4-(5-methyl-8-(piperidin-4-yloxy)quinazolin-2-ylamino)phenyl)(morpholino)methanone]
2 | < 5 | < 5 |  | CC(C)NS(=O)(=O)c1ccc(Nc2ncc3c(Br)ccc(OC4CCN(C(C)C)CC4)c3n2)cc1 [Compound 357, 4-(5-bromo-8-(1-isopropylpiperidin-4-yloxy)quinazolin-2-ylamino)-N-isopropylbenzenesulfonamide]
3 | 5 to 10 | < 5 |  | CC(C)N1CCC(Oc2ccc(Br)c3cnc(Nc4ccc(C(=O)N5CCOCC5)cc4)nc23)CC1 [Compound 358, (4-(5-bromo-8-(1-isopropylpiperidin-4-yloxy)quinazolin-2-ylamino)phenyl)(morpholino)methanone]
4 | 5 to 10 | < 5 |  | Cc1ccc(OC2CCN(C(C)C)CC2)c2nc(Nc3ccc(C(=O)N4CCOCC4)cc3)ncc12 [Compound 359, (4-(8-(1-isopropylpiperidin-4-yloxy)-5-methylquinazolin-2-ylamino)phenyl)(morpholino)methanone]
5 | < 5 | < 5 |  | Cc1ccc(OC2CCN(C(C)C)CC2)c2nc(Nc3ccc(S(=O)(=O)NC(C)C)cc3)ncc12 [Compound 360, N-isopropyl-4-(8-(1-isopropylpiperidin-4-yloxy)-5-methylquinazolin-2-ylamino)benzenesulfonamide]
6 | < 5 | < 5 |  | Cc1ccc(OC2CCNCC2)c2nc(Nc3ccc(N4CCOCC4)c(Cl)c3)ncc12 [Compound 362, N-(3-chloro-4-morpholinophenyl)-5-methyl-8-(piperidin-4-yloxy)quinazolin-2-amine]
7 | 5 to 10 | < 5 |  | Cc1ccc(OC2CCNCC2)c2nc(Nc3ccc(N4CCOCC4)c(F)c3)ncc12 [Compound 366, N-(3-fluoro-4-morpholinophenyl)-5-methyl-8-(piperidin-4-yloxy)quinazolin-2-amine]
8 | 5 to 10 | < 5 |  | Cc1ccc(OC2CCNCC2)c2nc(Nc3ccc(S(=O)(=O)N4CCOCC4)cc3)ncc12 [Compound 367, 5-methyl-N-(4-(morpholinosulfonyl)phenyl)-8-(piperidin-4-yloxy)quinazolin-2-amine]
9 | < 5 | < 5 |  | CN1CCC(Nc2ccc(Cl)c3cnc(Nc4ccc(C(=O)N5CCOCC5)cc4)nc23)CC1 [Compound 377, (4-(5-chloro-8-(1-methylpiperidin-4-ylamino)quinazolin-2-ylamino)phenyl) (morpholino)methanone]
10 | < 5 | < 5 |  | O=C(c1ccc(Nc2ncc3c(Cl)ccc(OC4CCNCC4)c3n2)cc1F)N1CCOCC1 [Compound 378, (4-(5-chloro-8-(piperidin-4-yloxy)quinazolin-2-ylamino)-2-fluorophenyl)(morpholino)methanone]
11 | 5 to 10 | < 5 |  | COc1ccc(C(F)(F)F)c2cnc(Nc3ccc(C(=O)N4CCOCC4)cc3)nc12 [Compound 383]

More lines, now with the values behind:

Row | SMILES | EC50 (PC-3 cells; [1]) [µM] | IC50 (PDK1 kinase) [µM] | EC50 (PC-3 cells; Cell Proliferation Assay) [µM]
12 | NS(=O)(=O)c1ccc(Nc2ncc3ccc(NC4CCNCC4)cc3n2)cc1 [Compound 361, 4-(7-(piperidin-4-ylamino)quinazolin-2-ylamino)benzenesulfonamide] | 5 to 10 | < 5 | 
13 | Clc1cc(Nc2ncc3ccc(NC4CCNCC4)cc3n2)ccc1N1CCOCC1 [Compound 363, N2-(3-chloro-4-morpholinophenyl)-N7-(piperidin-4-yl)quinazoline-2,7-diamine] | < 5 | < 5 | 
14 | Cc1ccc(OC2CCNCC2)c2nc(Nc3cccc(F)c3)ncc12 [Compound 365, N-(3-fluorophenyl)-5-methyl-8-(piperidin-4-yloxy)quinazolin-2-amine] | 5 to 10 | < 5 | 
15 | CN1CCC(Nc2ccc3cnc(Nc4ccc(N5CCOCC5)c(F)c4)nc3c2)CC1 [Compound 368, N2-(3-fluoro-4-morpholinophenyl)-N7-(1-methylpiperidin-4-yl)quinazoline-2,7-diamine] | < 5 | < 5 | 
16 | CN1CCC(Nc2ccc3cnc(Nc4ccc(N5CCOCC5)cc4)nc3c2)CC1 [Compound 369, N7-(1-methylpiperidin-4-yl)-N2-(4-morpholinophenyl)quinazoline-2,7-diamine] | 5 to 10 | < 5 | 
17 | CN1CCN(c2ccc(Nc3ncc4c(Br)ccc(OC5CCNCC5)c4n3)cc2)CC1 [Compound 373, 5-bromo-N-(4-(4-methylpiperazin-1-yl)phenyl)-8-(piperidin-4-yloxy)quinazolin-2-amine] | < 5 | 10 to 25 | 
18 | COc1cc(C(=O)NC2CCN(C)CC2)ccc1Nc1ncc2c(C)ccc(OC3CCNCC3)c2n1 [Compound 375, 3-methoxy-4-(5-methyl-8-(piperidin-4-yloxy)quinazolin-2-ylamino)-N-(1-methylpiperidin-4-yl)benzamide] | 5 to 10 | 5 to 10 | 
19 | CC(C)NC(=O)c1ccc(Nc2ncc3c(Cl)ccc(OC4CCNCC4)c3n2)cc1F [Compound 379, 4-(5-chloro-8-(piperidin-4-yloxy)quinazolin-2-ylamino)-2-fluoro-N-isopropylbenzamide] | < 5 | < 5 | 
20 | COc1cccc(Nc2ncc3c(Cl)ccc(OC4CCNCC4)c3n2)c1 [Compound 380, 5-chloro-N-(3-methoxyphenyl)-8-(piperidin-4-yloxy)quinazolin-2-amine] | < 5 | < 5 | 
21 | NC(=O)c1cc(Nc2ncc3c(Cl)ccc(OC4CCNCC4)c3n2)cc(C(F)(F)F)c1 [Compound 381, 3-(5-chloro-8-(piperidin-4-yloxy)quinazolin-2-ylamino)-5-(trifluoromethyl)benzamide] | < 5 | < 5 | 
22 | CC(=O)Nc1cc(NC(C)=O)cc(Nc2ncc3c(Cl)ccc(OC4CCNCC4)c3n2)c1 [Compound 382, N,N′-(5-(5-chloro-8-(piperidin-4-yloxy)quinazolin-2-ylamino)-1,3-phenylene)diacetamide] | 5 to 10 | < 5 | 
23 | FC(F)(F)c1ccc(OC2CCNCC2)c2nc(Nc3ccc(N4CCOCC4)cc3)ncc12 [Compound 384, N-(4-morpholinophenyl)-8-(piperidin-4-yloxy)-5-(trifluoromethyl)quinazolin-2-amine] | 5 to 10 | < 5 | 
24 | FC(F)(F)c1ccc(OC2CCNCC2)c2nc(Nc3ccc(N4CCOCC4)cc3)ncc12 [Compound 385, N-(4-morpholinophenyl)-8-(piperidin-4-yloxy)-5-(trifluoromethyl)quinazolin-2-amine] |  | < 5 | < 5
25 | CC(C)N1CCC(Oc2cc(Br)cc3cnc(Nc4ccc(F)cc4)nc23)CC1 [Compound 389, 6-bromo-N-(4-fluorophenyl)-8-(1-isopropylpiperidin-4-yloxy)quinazolin-2-amine] | < 5 | < 5 | 
26 | Cc1ccc(C(=O)O)cc1-c1ccc2cnc(Nc3ccc(S(N)(=O)=O)cc3)nc2c1 [Compound 390, 4-methyl-3-(2-(4-sulfamoylphenylamino)quinazolin-7-yl)benzoic acid] | 5 to 10 | < 5 | 
27 | c1cc(-c2ccc(NCCN3CCCC3)nc2)c2nc(Nc3ccc4[nH]cnc4c3)ncc2c1 [Compound 393, N-(1H-benzo[d]imidazol-5-yl)-8-(6-(2-(pyrrolidin-1-yl)ethylamino)pyridin-3-yl)quinazolin-2-amine] | < 5 | < 5 | 
28 | COc1cccc(Nc2ncc3cccc(-c4ccc(NCCN5CCCC5)nc4)c3n2)c1 [Compound 395, N-(3-methoxyphenyl)-8-(6-(2-(pyrrolidin-1-yl)ethylamino)pyridin-3-yl)quinazolin-2-amine] | < 5 | < 5 | 
29 | CC(=O)Nc1ccc(Nc2ncc3cccc(-c4ccc(NCCN5CCCC5)nc4)c3n2)cc1 [Compound 396, N-(4-(8-(6-(2-(pyrrolidin-1-yl)ethylamino)pyridin-3-yl)quinazolin-2-ylamino)phenyl)acetamide] | 5 to 10 | < 5 | 
30 | N#Cc1cccc(Nc2ncc3cccc(-c4ccc(NCCN5CCCC5)nc4)c3n2)c1 [Compound 397, 3-(8-(6-(2-(pyrrolidin-1-yl)ethylamino)pyridin-3-yl)quinazolin-2-ylamino)benzonitrile] | < 5 | < 5 | 
31 | Clc1cccc(Nc2ncc3cccc(-c4ccc(NCCN5CCCC5)nc4)c3n2)c1 [Compound 398, N-(3-chlorophenyl)-8-(6-(2-(pyrrolidin-1-yl)ethylamino)pyridin-3-yl)quinazolin-2-amine] | < 5 | < 5 | 
